The values below come from patent publication US20030129189A1, “Tumor necrosis factor-gamma” (priority 1994, published 2003).

One test deals with I-kappaBa in U-937 cells. Kind of test: I-kappaBa degradation (Western blot). It counts as cell-based. The note with it: 0.1-1.0 μg/ml, 12 hours. On the procedure:
These experiments were elaborated by determining a degradation profile for I-kappaBa in U-937 cells in response to treatment with TNF-gamma. A time course of I-kappaBa degradation was determined by Western blot analysis, a technique that is well-known by one of ordinary skill in the art and has been described by Singh and Aggarwal (J. Biol. Chem. 270:24995-25000 (1995)).
Background: In western blotting, separated proteins are transferred to a membrane and probed.

A further test relates to L929. Kind of test: TNF-gamma activity on L929 cells (MTS cytotoxicity/proliferation, morphology). Type of test: cell-based, mouse. Set-up: key to Proliferation / Differentiation / Adhesion: The numbers of “+” indicate the relative level of activities.; ++: The numbers of “+” indicate the relative level of activities.; +++: The numbers of “+” indicate the relative level of activities.; “−” indicates no detected activity at the concentration range tested. On the procedure: (§1) The adherent target cells were prepared from confluent cultures by trypsinization in PBS, and non-adherent target cells were harvested from stationary cultures and washed once with medium. Target cells were suspended at 3×10^5 cells/ml in medium containing 10% FCS. 0.1 ml aliquots were dispensed into 96-well flat-bottomed microtiter plates containing 0.1 ml serially diluted test samples of cells (WEHI 164 and L929). Incubation was continued for 70 hours. TNF-alpha, TNF-beta and bacterially-produced TNF-gamma were added at a 0.5 μg/ml concentration. The cytotoxicity and proliferation activity was quantified using an MTS assay performed by the addition of 20 μl of MTS and phenazine methosulfate (PMS) solution to each well. After a three hour incubation, the OD at 492 nm was measured by an ELISA plate reader. The OD492 is proportional to the number of viable cells in the wells. The percent of cytotoxicity was calculated as follows: […]. The photographs were taken after 72 hours.
(§2) In the graph of FIG. 7B, the assay was performed as described above, however, increasing amounts of TNF-alpha, TNF-beta and TNF-gamma were added to the cultures.

Test [1] has as its system adult bovine aortic endothelial cells. Kind of test: Endothelial cell apoptosis. It counts as cell-based.
A further test relates to 293. As to the kind of experiment: TNF-gamma activity on 293 cells. It counts as cell-based. More on the design: key: The numbers of “+” indicate the relative level of activities.; ++: The numbers of “+” indicate the relative level of activities.; +++: The numbers of “+” indicate the relative level of activities.; “−” indicates no detected activity at the concentration range tested. The note with it: 293, human embryonal kidney.

The subject of the next test is HL-60. Kind of test: TNF-gamma activity on HL-60 cells (incl. cell adhesion). It counts as cell-based, human. More on the design: key to Proliferation / Differentiation / Adhesion: The numbers of “+” indicate the relative level of activities.; ++: The numbers of “+” indicate the relative level of activities.; +++: The numbers of “+” indicate the relative level of activities.; “−” indicates no detected activity at the concentration range tested. The protocol:
as §1
To test adhesion ability of TNF-gamma, HL-60 cells were used and cell adhesion and cell-cell contact were measured by observation under the microscope and scored subjectively by two independent investigators. FIG. 11 illustrates the ability of TNF-gamma to induce cell adhesion. Cultures which were not treated with TNF-gamma contained cells which had spread throughout the culture dish.

The next test relates to WEHI 164. As to the kind of experiment: TNF-gamma activity on WEHI 164 cells (MTS cytotoxicity/proliferation, morphology). Type of test: cell-based, mouse. More on the design: key to Proliferation / Differentiation / Adhesion: The numbers of “+” indicate the relative level of activities.; ++: The numbers of “+” indicate the relative level of activities.; +++: The numbers of “+” indicate the relative level of activities.; “−” indicates no detected activity at the concentration range tested. The protocol: as §1, §2

The target of test [2] is T1, LTβR on transiently transfected cells (UniProt P36941 31-435, limits assumed).
T1 construct: whole, on cells
T1 sequence (P36941 31-435 limits assumed): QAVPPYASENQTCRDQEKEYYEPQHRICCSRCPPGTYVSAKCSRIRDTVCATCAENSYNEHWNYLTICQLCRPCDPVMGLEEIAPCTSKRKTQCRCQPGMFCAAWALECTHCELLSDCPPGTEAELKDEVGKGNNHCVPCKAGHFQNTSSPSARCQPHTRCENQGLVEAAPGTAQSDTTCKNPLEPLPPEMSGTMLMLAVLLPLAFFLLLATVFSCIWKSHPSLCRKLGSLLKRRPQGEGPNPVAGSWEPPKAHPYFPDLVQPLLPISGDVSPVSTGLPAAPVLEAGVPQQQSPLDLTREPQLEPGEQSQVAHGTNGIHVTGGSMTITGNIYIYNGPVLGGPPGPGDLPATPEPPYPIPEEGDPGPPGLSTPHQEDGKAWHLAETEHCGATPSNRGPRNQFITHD
Kind of test: flow cytometry on transiently transfected cells. On the procedure:
(§3) One million cells, in 0.1 ml of FACS buffer (PBS, 0.1% BSA, 0.1% NaN₃), were incubated with 0.1-1 microgram of protein or antibody at RT for 15 min. The cells were washed with 3 ml of FACS buffer, reacted with biotinylated primary antibody, and stained with PE-conjugated secondary antibody at RT for 15 min. Cells were then washed again, resuspended in 0.5 microgram/ml of propidium iodide, and live cells were gated and analyzed on a FACScan using the CellQuest software (BD Biosciences).

Test [3] has as its target T2, TNFR2 on transiently transfected cells (UniProt P20333 23-461, limits assumed).
T2 construct: whole, on cells
T2 sequence (looked up): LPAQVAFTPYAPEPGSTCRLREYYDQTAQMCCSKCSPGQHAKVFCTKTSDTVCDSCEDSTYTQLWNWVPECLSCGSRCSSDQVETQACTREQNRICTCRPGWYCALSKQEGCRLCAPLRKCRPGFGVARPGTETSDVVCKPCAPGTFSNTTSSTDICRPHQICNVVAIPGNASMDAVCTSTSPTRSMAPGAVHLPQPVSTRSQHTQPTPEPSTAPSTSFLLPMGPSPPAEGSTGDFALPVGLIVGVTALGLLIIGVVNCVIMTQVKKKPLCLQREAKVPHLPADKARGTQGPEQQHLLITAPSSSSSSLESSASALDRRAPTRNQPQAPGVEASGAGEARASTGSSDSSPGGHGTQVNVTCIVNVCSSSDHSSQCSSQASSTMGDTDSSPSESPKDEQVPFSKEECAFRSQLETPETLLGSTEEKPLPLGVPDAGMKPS
Kind of test: flow cytometry on transiently transfected cells. On the procedure:
as §3

Setting [4] is: HL-60, human promyelocytic leukemia.

In the case of “TNF-gamma: new member of the tumor necrosis factor family; the term refers to TNF-gamma-alpha and/or TNF-gamma-beta”, the I-kappaBa degradation entry in the test with I-kappaBa in U-937 cells is listed as “completely degraded”. Further, the “morphology change (killed cells)” value in the test with L929 (L929, 0.5 μg/ml, photographs after 72 hours (FIG. 8)) was “induced a morphology change which appeared as dark round cells (indicating killed cells)”; with WEHI 164 (WEHI 164, 0.5 μg/ml, photographs after 72 hours (FIG. 7A)), “induced a morphology change which appeared as dark round cells (indicating killed cells)”. The Adhesion result is recorded as “−−” with L929 (L929, mouse fibroblast); “−−” in the test with 293; “++” in the test on HL-60 (setting [4]); “−−” with WEHI 164 (WEHI 164, mouse fibrosarcoma). Besides, the Differentiation result with L929 (L929, mouse fibroblast) was “−−”; with 293, “−−”; with HL-60 (setting [4]), “−”; in the test with WEHI 164 (WEHI 164, mouse fibrosarcoma), “−−”. The Proliferation entry in the test with L929 (L929, mouse fibroblast) is given as “−”; in the test with 293 it was “++”; in the test with HL-60 (setting [4]), “−”; in the test with WEHI 164 (WEHI 164, mouse fibrosarcoma), “−”. Further, the “inhibition of L929 cell growth” value in the test on L929 (MTS assay, increasing amounts added) is reported as “but not of the fibroblast cell line L929”. In test [1], the apoptosis result is recorded as “induces apoptosis”. Further, the “cell adhesion and cell-cell contact” value in the test on HL-60 (HL-60 cells, observation under the microscope (FIG. 11)) is “clearly aggregated together”. Besides, the “inhibition of WEHI 164 cell growth” value in the test with WEHI 164 (MTS assay, increasing amounts added (FIG. 7B)) is listed as “dose-dependent inhibitor of the growth”.

B1: FLAG-tagged soluble TNF-gamma-beta (aa 72-251) (ligand)
chain: LKGQEFAPSHQQVYAPLRADGDKPRAHLTVVRQTPTQHFKNQFPALHWEHELGLAFTKNRMNYTNKFLLIPESGDYFIYSQVTFRGMTSECSEIRQAGRPNKPDSITVVITKVTDSYPEPTQLLMGTKSVCEVGSNWFQPIYLGAMFSLQEGDKLMVNVSDISLVDYTKEDKTFFGAFLL
notes: also called FLAG-TL1β; FLAG-TNF-gamma-beta; not shown: The N-terminal FLAG tag (pFLAG-CMV-1 vector) and any vector linker
For the molecule B1, the binding result in test [2] and in test [3] was “no binding” in each case.
